The values that follow are results of earlier work, collected in PMC8127065 (Journal of controlled release : official journal of the …, 2021).

In the case of `C=CC[C@@H]1/C=C(\C)C[C@H](C)C[C@H](OC)[C@H]2O[C@@](O)(C(=O)C(=O)N3CCCC[C@H]3C(=O)O[C@H](/C(C)=C/[C@@H]3CC[C@@H](O)[C@H](OC)C3)[C@H](C)[C@@H](O)CC1=O)[C@H](C)C[C@@H]2OC` [Tacrolimus], the water solubility is 1 to 2 µg/mL.
